Key:
Assay in all cases: relative viability (nuclei count vs DMSO), 5 days (fraction); higher = more cells survive
FG-4592 + Trametinib = compound: Cc1nc(C(=O)NCC(=O)O)c(O)c2ccc(Oc3ccccc3)cc12 [FG-4592] + CC(=O)Nc1cccc(-n2c(=O)n(C3CC3)c(=O)c3c(Nc4ccc(I)cc4F)n(C)c(=O)c(C)c32)c1 [Trametinib] (partner 0.02 µM)
In short: (§1)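 Each reported value is a median over duplicate plates. It expresses relative viability: treated-well nuclei count divided by vehicle-well nuclei count. Lung cancer cell lines in 1536-well plates were dosed by pin tool a day after seeding, alone with one drug or with a fixed anchor-drug dose plus five library-drug doses (not always all listed) in √10 steps, and nuclei were counted after 5 days.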

FG-4592 + Pictilisib = compound: Cc1nc(C(=O)NCC(=O)O)c(O)c2ccc(Oc3ccccc3)cc12 [FG-4592] + CS(=O)(=O)N1CCN(Cc2cc3nc(-c4cccc5[nH]ncc45)nc(N4CCOCC4)c3s2)CC1 [Pictilisib] (partner 1 µM)
In short: as §1

IU1-47 + Dasatinib = compound: CC1=CC(=C(N1C2=CC=C(C=C2)Cl)C)C(=O)CN3CCCCC3 [IU1-47] + Cc1nc(Nc2ncc(C(=O)Nc3c(C)cccc3Cl)s2)cc(N2CCN(CCO)CC2)n1 [Dasatinib] (partner 0.075 µM)
In short: as §1

FG-4592 + Foretinib = compound: Cc1nc(C(=O)NCC(=O)O)c(O)c2ccc(Oc3ccccc3)cc12 [FG-4592] + COc1cc2c(Oc3ccc(NC(=O)C4(C(=O)Nc5ccc(F)cc5)CC4)cc3F)ccnc2cc1OCCCN1CCOCC1 [Foretinib] (partner 0.25 µM)
In short: as §1

Cell Line	relative viability (FG-4592 + Trametinib; first compound 0.08 µM)	relative viability (FG-4592 + Trametinib; first compound 0.253 µM)	relative viability (FG-4592 + Trametinib; first compound 0.8 µM)	relative viability (FG-4592 + Trametinib; first compound 2.53 µM)	relative viability (FG-4592 + Trametinib; first compound 8 µM)	relative viability (FG-4592 + Pictilisib; first compound 0.08 µM)	relative viability (FG-4592 + Pictilisib; first compound 0.253 µM)	relative viability (FG-4592 + Pictilisib; first compound 0.8 µM)	relative viability (FG-4592 + Pictilisib; first compound 2.53 µM)	relative viability (FG-4592 + Pictilisib; first compound 8 µM)	relative viability (IU1-47 + Dasatinib; first compound 0.08 µM)	relative viability (IU1-47 + Dasatinib; first compound 0.253 µM)	relative viability (IU1-47 + Dasatinib; first compound 0.8 µM)	relative viability (IU1-47 + Dasatinib; first compound 2.53 µM)	relative viability (IU1-47 + Dasatinib; first compound 8 µM)	relative viability (FG-4592 + Foretinib; first compound 0.08 µM)	relative viability (FG-4592 + Foretinib; first compound 0.253 µM)	relative viability (FG-4592 + Foretinib; first compound 0.8 µM)	relative viability (FG-4592 + Foretinib; first compound 2.53 µM)	relative viability (FG-4592 + Foretinib; first compound 8 µM)
HCC-44	1.06	1.08	1.1	0.991	1.08	0.569	0.609	0.498	0.614	0.602										
HCC-827	0.495	0.491	0.48	0.532	0.506	1.05	1.04	1.07	0.875	0.834	0.345	0.366	0.301	0.288	0.387	1.06	0.899	1.04	1.03	1.06
NCI-H1623											0.588	0.571	0.588	0.591	0.555	0.825	0.846	0.795	0.731	0.724
NCI-H2347	0.315	0.323	0.267	0.326	0.28	0.0319	0.633	0.434	0.567	0.562	0.307	0.307	0.318	0.285	0.342		0.618	0.885	0.857	1.04
PC-14	0.708	0.717	0.71	0.833	0.496	0.681	0.752	0.756	0.624	0.73	0.223	0.257	0.209	0.226	0.205	1.09	0.997	1	0.965	0.987
NCI-H1651	0.85	0.836	0.76	0.774	0.82	0.541	0.575	0.534	0.635	0.454	0.325	0.412	0.454	0.414	0.39	0.863	0.773	0.88	0.901	0.839
HARA				0.586	0.667	0.329	0.292		0.46	0.304	0.273	0.184	0.325		0.276	0.834	0.87	0.896	0.885	0.878
NCI-H1650	0.604	0.573	0.615	0.603	0.628	0.428	0.549	0.44	0.586	0.617	0.269	0.311	0.283	0.292	0.27	1.24	0.903	1.21	1.33	1.04
NCI-H1395	0.961	1.01	0.936	1.03	0.773	0.747	0.622		0.776	0.531	0.422	0.451	0.457	0.374	0.374	1.06	0.889	0.981	0.997	0.963
LU99A	0.548	0.467		0.503	0.523	0.311	0.28	0.291	0.316	0.339	0.756	0.499	0.457	0.659	0.462	0.789	0.791	0.743	0.879	0.808
NCI-H1355	0.462	0.455		0.421	0.337	0.389	0.393		0.379	0.366	0.655	0.798	0.706		0.667	0.987	0.678	0.93	1.02	0.971
HCC-78	0.719		0.741	0.578	0.743	0.219	0.248	0.182	0.222	0.225	0.378	0.389	0.324	0.373	0.336	0.556	0.561	0.52	0.541	0.576
NCI-H1563						0.655	0.624	0.657	0.648	0.669	0.532	0.481	0.429	0.462	0.447	0.995	0.961	0.866	1.01	0.82
HCC-15	0.41	0.359	0.352	0.395	0.412	0.65	0.723	0.738	0.729	0.784	0.687	0.749	0.685	0.564	0.519	1.03	0.978	1.04	0.93	1.07
EKVX	0.318	0.352	0.334	0.332	0.24	0.395	0.377	0.478	0.428	0.441	0.564	0.577	0.691	0.34	0.389	0.744	0.804	0.773	0.717	1.04
NCI-H2087	0.224	0.19	0.198		0.235	0.934	0.707	0.903	0.809	0.836	0.963	0.973	1.12		0.681	1.19	1.02	1.21	1.07	1.11
LK-2	0.599	0.661	0.628	0.621	0.516		0.638		0.64	0.475	0.221	0.185	0.264	0.24	0.28	1.17	0.95		1.19	0.993
NCI-H1437	0.539	0.414	0.473	0.47	0.301	0.447	0.437	0.337	0.37	0.269	0.369	0.348	0.384	0.35	0.365	1.24	1.19	1.29	1.3	1.04

Source: the supplement of paper PMC10307832
